In patent publication US20210045385A1, “PYRIDAZINONE-SUBSTITUTED KETOXIMES AS HERBICIDES” (FMC Corporation, priority 2018, published 2021):

Key:
Assay type in all cases: in vivo
[1] = test system: galium (catchweed bedstraw, Galium aparine); assay: Test A postemergence, visual plant response rating; settings: for Galium plant response rating (0 to 100 scale): 500 g ai/ha, postemergence, 0 is no effect, 100 is complete control; for Galium plant response rating: Postemergence, 125 g ai/ha, 0 to 100 scale (0 no effect, 100 complete control)
Summary of the method: (§1)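 Formulated in a non-phytotoxic solvent mixture including surfactant, each test chemical was sprayed onto the soil surface after sowing, or onto seedlings 2 to 10 cm high. Roughly 10 days later, plants were compared with untreated controls and rated for injury from 0 (no effect) to 100 (complete control).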

[2] = test system: barnyardgrass (Echinochloa crus-galli); assay: Test A postemergence, visual plant response rating; settings: for Barnyardgrass plant response rating (0 to 100 scale): 500 g ai/ha, postemergence, 0 is no effect, 100 is complete control; for Barnyardgrass plant response rating: Postemergence, 125 g ai/ha, 0 to 100 scale (0 no effect, 100 complete control)
Summary of the method: as §1

kochia (Kochia scoparia) [3] = assay: Test A postemergence, visual plant response rating; settings: for Kochia plant response rating (0 to 100 scale): 500 g ai/ha, postemergence, 0 is no effect, 100 is complete control; for Kochia plant response rating: Postemergence, 125 g ai/ha, 0 to 100 scale (0 no effect, 100 complete control)
Summary of the method: as §1

[4] = test system: foxtail, giant (giant foxtail, Setaria faberii); assay: Test A postemergence, visual plant response rating; settings: for Foxtail, Giant plant response rating (0 to 100 scale): 500 g ai/ha, postemergence, 0 is no effect, 100 is complete control; for Foxtail, Giant plant response rating: Postemergence, 125 g ai/ha, 0 to 100 scale (0 no effect, 100 complete control)
Summary of the method: as §1

corn (Zea mays) = assay: Test A postemergence, visual plant response rating; settings: for Corn plant response rating (0 to 100 scale): 500 g ai/ha, postemergence, 0 is no effect, 100 is complete control; for Corn plant response rating: Postemergence, 125 g ai/ha, 0 to 100 scale (0 no effect, 100 complete control)
Summary of the method: as §1

[5] = test system: blackgrass (Alopecurus myosuroides); assay: Test A postemergence, visual plant response rating; settings: for Blackgrass plant response rating (0 to 100 scale): 500 g ai/ha, postemergence, 0 is no effect, 100 is complete control; for Blackgrass plant response rating: Postemergence, 125 g ai/ha, 0 to 100 scale (0 no effect, 100 complete control)
Summary of the method: as §1

[6] = test system: Italian ryegrass (Lolium multiflorum); assay: Test A postemergence, visual plant response rating; settings: for Ryegrass, Italian plant response rating (0 to 100 scale): 500 g ai/ha, postemergence, 0 is no effect, 100 is complete control; for Ryegrass, Italian plant response rating: Postemergence, 125 g ai/ha, 0 to 100 scale (0 no effect, 100 complete control)
Summary of the method: as §1

[7] = test system: pigweed (Amaranthus retroflexus); assay: Test A postemergence, visual plant response rating; settings: for Pigweed plant response rating (0 to 100 scale): 500 g ai/ha, postemergence, 0 is no effect, 100 is complete control; for Pigweed plant response rating: Postemergence, 125 g ai/ha, 0 to 100 scale (0 no effect, 100 complete control)
Summary of the method: as §1

[8] = test system: ragweed (common ragweed, Ambrosia elatior); assay: Test A postemergence, visual plant response rating; settings: for Ragweed plant response rating (0 to 100 scale): 500 g ai/ha, postemergence, 0 is no effect, 100 is complete control; for Ragweed plant response rating: Postemergence, 125 g ai/ha, 0 to 100 scale (0 no effect, 100 complete control)
Summary of the method: as §1

[9] = test system: wheat (Triticum aestivum); assay: Test A postemergence, visual plant response rating; settings: for Wheat plant response rating (0 to 100 scale): 500 g ai/ha, postemergence, 0 is no effect, 100 is complete control; for Wheat plant response rating: Postemergence, 125 g ai/ha, 0 to 100 scale (0 no effect, 100 complete control)
Summary of the method: as §1

[10] = test system: barnyardgrass (Echinochloa crus-galli); assay: Test B flooded paddy test, visual plant response rating; settings: 250 g ai/ha, Flood, applied to paddy water, 2-leaf stage, evaluated after 13 to 15 days
Summary of the method: (§2)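 2-leaf plants; pots flooded 3 cm over soil surface; compound dosed straight into the floodwater; depth kept constant; greenhouse 13–15 d; visual rating vs. untreated controls.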

rice (Oryza sativa) = assay: as above; settings: 250 g ai/ha, Flood, applied to paddy water, 2-leaf stage, evaluated after 13 to 15 days
Summary of the method: as §2

[11] = test system: ducksalad (Heteranhera limosa); assay: as above; settings: 250 g ai/ha, Flood, applied to paddy water, 2-leaf stage, evaluated after 13 to 15 days
Summary of the method: as §2

[12] = test system: sedge, umbrella (small-flower umbrella sedge, Cyperus difformis); assay: as above; settings: 250 g ai/ha, Flood, applied to paddy water, 2-leaf stage, evaluated after 13 to 15 days
Summary of the method: as §2

[13] = test system: barnyardgrass (Echinochloa crus-galli); assay: Test A preemergence, visual plant response rating; settings: for Barnyardgrass plant response rating: 125 g ai/ha, preemergence, 0 to 100 scale, 0 no effect, 100 complete control; for Barnyardgrass plant response rating (0 to 100 scale): 500 g ai/ha Preemergence, approx. 10 days
Summary of the method: as §1

kochia (Kochia scoparia) [14] = assay: Test A preemergence, visual plant response rating; settings: for Kochia plant response rating: 125 g ai/ha, preemergence, 0 to 100 scale, 0 no effect, 100 complete control; for Kochia plant response rating (0 to 100 scale): 500 g ai/ha Preemergence, approx. 10 days
Summary of the method: as §1

[15] = test system: foxtail, giant (giant foxtail, Setaria faberii); assay: Test A preemergence, visual plant response rating; settings: for Foxtail, Giant plant response rating: 125 g ai/ha, preemergence, 0 to 100 scale, 0 no effect, 100 complete control; for Foxtail, Giant plant response rating (0 to 100 scale): 500 g ai/ha Preemergence, approx. 10 days
Summary of the method: as §1

[16] = test system: Italian ryegrass (Lolium multiflorum); assay: Test A preemergence, visual plant response rating; settings: for Ryegrass, Italian plant response rating: 125 g ai/ha, preemergence, 0 to 100 scale, 0 no effect, 100 complete control; for Ryegrass, Italian plant response rating (0 to 100 scale): 500 g ai/ha Preemergence, approx. 10 days
Summary of the method: as §1

[17] = test system: pigweed (Amaranthus retroflexus); assay: Test A preemergence, visual plant response rating; settings: for Pigweed plant response rating: 125 g ai/ha, preemergence, 0 to 100 scale, 0 no effect, 100 complete control; for Pigweed plant response rating (0 to 100 scale): 500 g ai/ha Preemergence, approx. 10 days
Summary of the method: as §1

[18] = test system: ragweed (common ragweed, Ambrosia elatior); assay: Test A preemergence, visual plant response rating; settings: for Ragweed plant response rating: 125 g ai/ha, preemergence, 0 to 100 scale, 0 no effect, 100 complete control; for Ragweed plant response rating (0 to 100 scale): 500 g ai/ha Preemergence, approx. 10 days
Summary of the method: as §1

CON=C(c1c(O)c(C)nn(C)c1=O)c1cccc2ccc(Cl)cc12 [Compound 110]
0: Wheat plant response rating (0 to 100 scale) [9] | Wheat plant response rating [9] | Plant response rating, Barnyardgrass (0 to 100 scale, 0 is no effect, 100 is complete control) [10] | Plant response rating, Rice (0 to 100 scale, 0 is no effect, 100 is complete control) (rice (Oryza sativa)) | Plant response rating, Ducksalad (0 to 100 scale, 0 is no effect, 100 is complete control) [11] | Plant response rating, Sedge, Umbrella (0 to 100 scale, 0 is no effect, 100 is complete control) [12] | Kochia plant response rating (kochia (Kochia scoparia) [14])
10: Corn plant response rating (corn (Zea mays)) | Kochia plant response rating (0 to 100 scale) (kochia (Kochia scoparia) [14])
60: Kochia plant response rating (0 to 100 scale) (kochia (Kochia scoparia) [3]) | Ragweed plant response rating [8] | Foxtail, Giant plant response rating [15] | Ryegrass, Italian plant response rating [16]
50: Barnyardgrass plant response rating [2] | Kochia plant response rating (kochia (Kochia scoparia) [3]) | Foxtail, Giant plant response rating [4] | Pigweed plant response rating [17]
70: Barnyardgrass plant response rating (0 to 100 scale) [2] | Barnyardgrass plant response rating [13] | Ryegrass, Italian plant response rating (0 to 100 scale) [16]
30: Corn plant response rating (0 to 100 scale) (corn (Zea mays)) | Ryegrass, Italian plant response rating [6]
80: Ryegrass, Italian plant response rating (0 to 100 scale) [6] | Barnyardgrass plant response rating (0 to 100 scale) [13]
90: Galium plant response rating [1] | Foxtail, Giant plant response rating (0 to 100 scale) [4] | Blackgrass plant response rating (0 to 100 scale) [5] | Blackgrass plant response rating [5] | Pigweed plant response rating [7] | Ragweed plant response rating (0 to 100 scale) [8] | Ragweed plant response rating (0 to 100 scale) [18]
40: Ragweed plant response rating [18]
100: Galium plant response rating (0 to 100 scale) [1] | Pigweed plant response rating (0 to 100 scale) [7] | Foxtail, Giant plant response rating (0 to 100 scale) [15] | Pigweed plant response rating (0 to 100 scale) [17]

CO/N=C(\c1c(C)cccc1F)c1c(O)c(C)nn(C)c1=O [Compound 39]
70: Galium plant response rating (0 to 100 scale) [1]
60: Ragweed plant response rating (0 to 100 scale) [8]
20: Corn plant response rating (0 to 100 scale) (corn (Zea mays))
30: Ragweed plant response rating (0 to 100 scale) [18]
10: Barnyardgrass plant response rating (0 to 100 scale) [2] | Pigweed plant response rating (0 to 100 scale) [7] | Wheat plant response rating (0 to 100 scale) [9]
0: Barnyardgrass plant response rating [2] | Kochia plant response rating (0 to 100 scale) (kochia (Kochia scoparia) [3]) | Kochia plant response rating (kochia (Kochia scoparia) [3]) | Foxtail, Giant plant response rating (0 to 100 scale) [4] | Foxtail, Giant plant response rating [4] | Corn plant response rating (corn (Zea mays)) | Blackgrass plant response rating (0 to 100 scale) [5] | Blackgrass plant response rating [5] | Ryegrass, Italian plant response rating (0 to 100 scale) [6] | Ryegrass, Italian plant response rating [6] | Pigweed plant response rating [7] | Ragweed plant response rating [8] | Wheat plant response rating [9] | Plant response rating, Barnyardgrass (0 to 100 scale, 0 is no effect, 100 is complete control) [10] | Plant response rating, Rice (0 to 100 scale, 0 is no effect, 100 is complete control) (rice (Oryza sativa)) | Plant response rating, Ducksalad (0 to 100 scale, 0 is no effect, 100 is complete control) [11] | Plant response rating, Sedge, Umbrella (0 to 100 scale, 0 is no effect, 100 is complete control) [12] | Barnyardgrass plant response rating [13] | Barnyardgrass plant response rating (0 to 100 scale) [13] | Kochia plant response rating (kochia (Kochia scoparia) [14]) | Kochia plant response rating (0 to 100 scale) (kochia (Kochia scoparia) [14]) | Foxtail, Giant plant response rating [15] | Foxtail, Giant plant response rating (0 to 100 scale) [15] | Ryegrass, Italian plant response rating [16] | Ryegrass, Italian plant response rating (0 to 100 scale) [16] | Pigweed plant response rating [17] | Pigweed plant response rating (0 to 100 scale) [17] | Ragweed plant response rating [18]
40: Galium plant response rating [1]

CON=C(c1c(O)c(C)nn(C)c1=O)c1cccc2ccoc12 [Compound 61]
20: Barnyardgrass plant response rating (0 to 100 scale) [2] | Foxtail, Giant plant response rating (0 to 100 scale) [4] | Blackgrass plant response rating (0 to 100 scale) [5]
10: Blackgrass plant response rating [5] | Ryegrass, Italian plant response rating [6] | Ragweed plant response rating [8] | Foxtail, Giant plant response rating (0 to 100 scale) [15]
60: Galium plant response rating [1]
70: Ryegrass, Italian plant response rating (0 to 100 scale) [6] | Ragweed plant response rating (0 to 100 scale) [18]
80: Galium plant response rating (0 to 100 scale) [1] | Pigweed plant response rating (0 to 100 scale) [7] | Ryegrass, Italian plant response rating (0 to 100 scale) [16]
40: Wheat plant response rating (0 to 100 scale) [9]
50: Kochia plant response rating (0 to 100 scale) (kochia (Kochia scoparia) [3]) | Pigweed plant response rating [7]
30: Kochia plant response rating (kochia (Kochia scoparia) [3]) | Ragweed plant response rating (0 to 100 scale) [8] | Wheat plant response rating [9] | Ryegrass, Italian plant response rating [16]
0: Barnyardgrass plant response rating [2] | Foxtail, Giant plant response rating [4] | Corn plant response rating (0 to 100 scale) (corn (Zea mays)) | Corn plant response rating (corn (Zea mays)) | Plant response rating, Barnyardgrass (0 to 100 scale, 0 is no effect, 100 is complete control) [10] | Plant response rating, Rice (0 to 100 scale, 0 is no effect, 100 is complete control) (rice (Oryza sativa)) | Plant response rating, Ducksalad (0 to 100 scale, 0 is no effect, 100 is complete control) [11] | Plant response rating, Sedge, Umbrella (0 to 100 scale, 0 is no effect, 100 is complete control) [12] | Barnyardgrass plant response rating [13] | Barnyardgrass plant response rating (0 to 100 scale) [13] | Kochia plant response rating (kochia (Kochia scoparia) [14]) | Kochia plant response rating (0 to 100 scale) (kochia (Kochia scoparia) [14]) | Foxtail, Giant plant response rating [15] | Pigweed plant response rating [17] | Pigweed plant response rating (0 to 100 scale) [17] | Ragweed plant response rating [18]
